Reference: patent US20250145631A1, “HETEROCYCLIC COMPOUND ACTING ON G12D MUTANT KRAS PROTEIN” (Astellas Pharma Inc., priority 2022, published 2025)

How the values were obtained:
Type in all cases: cell-based
[1] = tested on: human G12D mutant KRAS-positive pancreatic cancer line AsPC-1; experiment: Non-anchorage-dependent cell growth inhibitory effect, spheroid 3D culture (Test Example 3); conditions: ASPC1, 144 h, AsPC-1 spheroid 3D culture, 6 days, CellTiter Glo 2.0, read-out: IC50 (non-anchorage-dependent cell growth inhibition)
Experimental: The non-anchorage-dependent cell growth inhibitory effect of test compounds was evaluated by spheroid 3D cell culture.
AsPC-1 cells were seeded on low-cell-adhesive round bottom 384-well plates (PrimeSurface: from Sumitomo Bakelite) at 20 μL (or […])/well to give 5×10^2 cells per well. As for the cell culture conditions, RPMI 1640 medium containing 10% fetal bovine serum was used in the presence of 5% CO2 at 37° C.
The next day, the test compounds (10 points or 6 points having final concentrations in the range of 10 μM to 0.3 nM) and DMSO, which was the solvent for the test compounds, as a negative control were diluted 500-fold (or 100-fold) with a fresh medium and were added at 20 μL (or […]) per well. After culturing in the presence of 5% C02 at 37° C. for 6 days, CellTiter Glo 2.0 (from Promega) was added at 20 μL per well. After stirring with a plate mixer (from FINEPCR) at normal temperature for 1 hour, the luminescent signals were measured with ARVO X3 (from PerkinElmer).
(§1) With the signaling value in treatment with DMSO taken as 100% and with the signaling value in the medium alone without cells taken as 0%, the 50% inhibitory concentration values (IC50) were calculated by Sigmoid-Emax nonlinear regression analysis. The calculated 50% inhibition represents the inhibition at the highest concentration evaluated (10 μM) for a compound that exceeds the concentration in the evaluation range.
(§2) In the tables presented below, Ex represents Example No. The IC50 of Ex. 13, Ex. 15, and Ex. 16 were calculated using the molecular weights as tetrahydrochloride, and the IC50 of Ex. 14 was calculated using the molecular weight as trihydrochloride.

[2] = tested on: phosphorylation of ERK (Thr202/Tyr204); experiment: ERK phosphorylation inhibitory effect by Cell ELISA in AsPC-1 cells (Test Example 2); conditions: Homo sapiens, ASPC1, overnight treatment, Cell ELISA, read-out: IC50 (ERK phosphorylation inhibition)
Experimental: The ERK phosphorylation inhibitory effect of test compounds was evaluated by measuring phosphorylation of threonine 202 (Thr202) and tyrosine 204 (Tyr204) of ERK located downstream of the KRAS signal by Cell ELISA.
AsPC-1 cells were seeded on 384-well plates at 20 µL/well to give 2.0×10^4 cells per well. As for the cell culture conditions, RPMI 1640 medium containing 10% fetal bovine serum was used in the presence of 5% CO2 at 37° C.
The next day, the test compounds (10 points having final concentrations in the range of 10 μM to 0.3 nM), trametinib (MEK inhibitor) of a final concentration of […] as positive control and DMSO, which was the solvent for the test compounds, as negative control were diluted 500-fold with a fresh medium and were added at 20 μL per well. The cells were cultured overnight. After culturing, 30% glyoxal solution (40% glyoxal [from Nacalai Tesque]was diluted with PBS) was quickly added at 30 μL per well, and the plates were allowed to stand for 120 minutes at room temperature to thus immobilize the cells. Then, the plates were centrifuged to remove the supernatant (using a centrifugal dehydrator machine, the supernatant was removed by the same method hereinafter), and 0.10% Triton X-100-containing PBS was added at 20 μL per well. After allowing to stand for 10 minutes at room temperature, the supernatant was removed, and the same operation was further repeated. Next, 0.5% SDS-containing PBS was added at 20 μL per well, and after allowing to stand at room temperature for 30 minutes, the supernatant was removed. Subsequently, blocking solution (Intercept Blocking Buffer) was added at 20 μL per well, and the plates were allowed to stand for 1 hour at room temperature. The supernatant was removed, and an ERK (Thr202/Tyr204) phosphorylation antibody (Phospho-p44/42 MAPK (Erk 1/2) (Thr202/Tyr204) (D13.14.4E) XP Rabbit mAb; from Cell Signaling Technology) diluted 2,500-fold with blocking solution was added at 15 μL per well as a primary antibody. The plates were allowed to stand at 4° C. overnight.
The next day, the supernatant was removed. 0.05% Tween-20 (from Thermo Fisher Scientific)-containing PBS was added at 50 μL per well, and the supernatant was removed to thus wash each well. The washing was performed three times in total. After washing, Goat anti-Rabbit IgG H&L (IRDye 800CW) diluted 1,000-fold with blocking solution was added at 15 μL per well as a secondary antibody, and the plates were allowed to stand for 1 hour at room temperature. The supernatant was removed, and each well was washed three times with 0.05% Tween-20-containing PBS in the same manner as after the primary antibody reaction. After removing the supernatant, the plates were dried with air at room temperature for 3 hours or more, and the 800-nm fluorescent signals were measured with Aerius.
as §1, with “value at the time of addition of” for “value in treatment with”, “value at” for “value in”, “the time of addition of […] trametinib” for “the medium alone without cells”
as §2

KRAS G12D = target: T1, KRAS G12D (Homo sapiens, UniProt P01116, G12D); experiment: KRAS degradation activity by Cell ELISA in AsPC-1 cells (Test Example 1); conditions: Cell ELISA; for Dmax: ASPC1, overnight treatment, read-out: Dmax (degradation rate at the concentration showing highest degradation); for DC50: overnight treatment, read-out: DC50 (50% degradation concentration of KRAS)
T1 construct: host or cells: AsPC-1 (human pancreatic cancer line)
Experimental: The KRAS degradation activity of test compounds was evaluated by measuring the expression levels of KRAS G12D by Cell ELISA.
AsPC-1 cells were seeded at 20 μL per well on 384-well plates (from Greiner bio-one) to give 2.0×10^4 cells per well. As for the cell culture conditions, RPMI 1640 (from Sigma-Aldrich) medium containing 10% fetal bovine serum (from Cytiva) was used in the presence of 5% CO2 at 37° C.
The next day, the test compounds (10 points having final concentrations in the range of 10 μM to 0.3 nM) and DMSO (from FUJIFILM Wako Pure Chemical Corporation), which was the solvent for the test compounds, as a negative control were diluted 500-fold with a fresh medium and were added at 20 μL per well. The cells were cultured overnight. The next day, the culture supernatant was removed, and 4% paraformaldehyde phosphate buffer (from FUJIFILM Wako Pure Chemical Corporation) was added at 20 μL per well. The plates were allowed to stand for 30 minutes at room temperature to thus immobilize the cells. Then, the supernatant was removed, and 0.1% Triton X-100 (from Amersham Biosciences)-containing Phosphate buffered saline (PBS; from FUJIFILM Wako Pure Chemical Corporation) was added at 20 μL per well. After allowing to stand for 10 minutes at room temperature, the supernatant was removed. PBS was added at 25 μL per well, and the supernatant was removed to thus wash each well. The washing was performed twice in total. Next, the supernatant was removed, and 0.5% sodium dodecyl sulfate (SDS; from Invitrogen)-containing PBS was added at 20 μL per well. After allowing to stand at room temperature for 10 minutes, the supernatant was removed by a centrifugal operation (using a centrifugal dehydrator machine, the supernatant was removed by the same method hereinafter). PBS was added at 25 μL per well, and the supernatant was removed to thus wash each well. The washing was performed twice in total. The supernatant was removed, and blocking solution (Intercept Blocking Buffer; from Li—COR Biosciences) was added at 20 μL per well. After allowing to stand for 30 minutes at room temperature, the supernatant was removed, and a solution obtained by diluting anti-β-actin antibody (Anti-beta Actin antibody [mAbcam 8226]-Loading Control; from abcam) 1,000-fold with blocking solution and a solution obtained by diluting anti-Ras (G12D Mutant Specific) antibody (Ras (G12D Mutant Specific) (D8H7) Rabbit mAb #14429; from Cell Signaling Technology) and anti-β-actin antibody (from abcam) 1,000-fold with blocking solution were respectively added to positive control wells and the other wells at 15 μL per well as a primary antibody. The plates were allowed to stand overnight at 4° C.
The next day, the supernatant was removed. PBS was added at 25 μL per well, and the supernatant was removed to thus wash each well. The washing was performed twice in total. The supernatant was removed, and a solution obtained by diluting Donkey anti-Mouse IgG H&L (IRDye 680RD) (from Li—COR Biosciences) and Goat anti-Rabbit IgG H&L (IRDye 800CW) (from Li—COR Biosciences) 1,000-fold with blocking solution was added at 15 μL per well as a secondary antibody. A solution obtained by diluting Donkey anti-Mouse IgG H&L (IRDye 680RD) (from Li—COR Biosciences) 1,000-fold with blocking solution was added to a positive control well as a secondary antibody. After allowing to stand for 1 hour at room temperature, the supernatant was removed. PBS was added at […], and the supernatant was removed to thus wash each well. The washing was performed twice in total. After removing the supernatant, the plates were dried with air at room temperature for 2 hours or more, and the 700 nm and 800 nm fluorescent signals were measured with Aerius (from Li—COR Biosciences). […]

T1 sequence (P01116 1-188 isoform P01116-2 G12D): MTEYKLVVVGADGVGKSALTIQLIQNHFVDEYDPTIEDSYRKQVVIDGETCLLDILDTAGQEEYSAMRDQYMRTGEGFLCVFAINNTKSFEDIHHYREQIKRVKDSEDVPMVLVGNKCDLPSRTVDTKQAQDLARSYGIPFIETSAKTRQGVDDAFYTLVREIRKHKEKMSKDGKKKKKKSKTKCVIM

| IC50 [1] | IC50 [2] | Dmax (KRAS G12D) | DC50 (KRAS G12D) | SMILES |
| --- | --- | --- | --- | --- |
| 128 nM | 283 nM | 84% | 114 nM | Cc1c(F)cc2[nH]ncc2c1-c1c(C2CC2)cc2c(N3C[C@@H]4C[C@H]3CN4)nc(OC3CCOCC3)nc2c1OCc1ccc(C(=O)N2CCN(Cc3ccc4c(N5CCC(=O)NC5=O)n(C)nc4c3)C[C@@H]2C)cc1 (atropisomer, axis not shown) [Example 22] |
| 1280 nM |  |  |  | Cc1c(F)cc2[nH]ncc2c1-c1c(C2CC2)cc2c(N3C[C@@H]4C[C@H]3CN4)nc(OC3CCOCC3)nc2c1OCc1ccc(C(=O)N2CCN(Cc3ccc4c(c3)cc(N3CCC(=O)NC3=O)c(=O)n4C)C[C@@H]2C)cc1 (atropisomer, axis not shown) [Example 46] |
| 448 nM |  |  |  | Cc1c(F)cc2[nH]ncc2c1-c1c(C2CC2)cc2c(N3C[C@@H]4C[C@H]3CN4)nc(OC3CCOCC3)nc2c1OCc1ccc(C(=O)N2CCN(Cc3ccc4c(c3)n(C)c(=O)n4N3CCC(=O)NC3=O)C[C@@H]2C)cc1 (atropisomer, axis not shown) [Example 47] |
| 162 nM |  |  |  | CO[C@@H](C)COc1nc(N2CCNCC2)c2cc(C3CC3)c(-c3c(C)c(F)cc4[nH]ncc34)c(OCc3ccc(C(=O)N4CCN(Cc5ccc6c(c5)n(C)c(=O)n6C5CCC(=O)NC5=O)C[C@@H]4C)cc3)c2n1 (stereo partly drawn) [Example 45] |
| 161 nM |  |  |  | Cc1c(F)cc2[nH]ncc2c1-c1c(C2CC2)nc2c(N3C[C@@H]4C[C@H]3CN4)nc(OC3CCOCC3)nc2c1OCc1ccc(C(=O)N2CCN(Cc3ccc4c(c3)n(C)c(=O)n4C3CCC(=O)NC3=O)C[C@@H]2C)cc1 (stereo partly drawn) [Example 48] |

More lines, now with the values behind:

| SMILES | IC50 [1] | IC50 [2] | Dmax (KRAS G12D) | DC50 (KRAS G12D) |
| --- | --- | --- | --- | --- |
| Cc1c(F)cc2[nH]ncc2c1-c1c(C2CC2)cc2c(N3C[C@@H]4C[C@H]3CN4)nc(OC3CCOCC3)nc2c1OCc1ccc(C(=O)N2CCN(Cc3ccc4c(N5CCC(=O)NC5=O)nn(C)c4c3)CC2)cc1 (atropisomer, axis not shown) [Example 13] | 1220 nM | 608 nM | 66% | 408 nM |
| Cc1nc(N2CCN(C(=O)c3ccc(COc4c(-c5c(C)c(F)cc6[nH]ncc56)c(C5CC5)cc5c(N6C[C@@H]7C[C@H]6CN7)nc(OC6CCOCC6)nc45)cc3)CC2)ccc1N1CCC(=O)NC1=O (atropisomer, axis not shown) [Example 14] | 1120 nM | 1510 nM | 51% | 2180 nM |
| Cc1c(F)cc2[nH]ncc2c1-c1c(C2CC2)cc2c(N3C[C@@H]4C[C@H]3CN4)nc(OC3CCOCC3)nc2c1OCc1ccc(C(=O)N2CCN(Cc3ccc4c(N5CCC(=O)NC5=O)nn(C)c4c3)C[C@H]2C)cc1 (atropisomer, axis not shown) [Example 15] | 211 nM | 503 nM | 60% | 406 nM |
| Cc1nc(OC2CCN(C(=O)c3ccc(COc4c(-c5c(C)c(F)cc6[nH]ncc56)c(C5CC5)cc5c(N6C[C@@H]7C[C@H]6CN7)nc(OC6CCOCC6)nc45)cc3)CC2)ccc1N1CCC(=O)NC1=O (atropisomer, axis not shown) [Example 17] | 684 nM | 1340 nM | 52% | 4270 nM |
| Cc1c(F)cc2[nH]ncc2c1-c1c(C2CC2)cc2c(N3C[C@@H]4C[C@H]3CN4)nc(OC3CCOCC3)nc2c1OCc1ccc(C(=O)N2CCC3(CN(Cc4ccc5c(N6CCC(=O)NC6=O)nn(C)c5c4)C3)C2)cc1 (atropisomer, axis not shown) [Example 19] | 242 nM | 555 nM | 93% | 278 nM |
| Cc1c(F)cc2[nH]ncc2c1-c1c(C2CC2)cc2c(N3C[C@@H]4C[C@H]3CN4)nc(OC3CCOCC3)nc2c1OCc1ccc(C(=O)N2CC[C@H](N(C)Cc3ccc4c(N5CCC(=O)NC5=O)nn(C)c4c3)C2)cc1 (atropisomer, axis not shown) [Example 20] | 884 nM | 1070 nM | 78% | 488 nM |
| Cc1c(N2CCC(=O)NC2=O)ccnc1OC1CCN(C(=O)c2ccc(COc3c(-c4c(C)c(F)cc5[nH]ncc45)c(C4CC4)cc4c(N5C[C@@H]6C[C@H]5CN6)nc(OC5CCOCC5)nc34)cc2)CC1 (atropisomer, axis not shown) [Example 21] | 852 nM | 2280 nM | 52% | 4960 nM |
